Where “and” joins values, the source holds several entries; their conditions need not be identical. Equal values may be shown once. Read-outs that look alike come from different tables or passages of the source.
Key:
HDAC 1 = conditions: cited from earlier work
TPH1 = biological target: T1, TPH1 (Homo sapiens, UniProt P17752); assay: Differential scanning fluorimetry (DSF) thermal stability assay; assay type: binding; conditions: for Tm (°C) ± SD (°C), primary screen: 0.075 mg/mL TPH1, 0.5% DMSO, three independent measurements (a: duplicates); for Kd: estimated from DSF dose-response, 2% DMSO, read-out: apparent KD (μM), dose-response
T1 construct: doubly truncated human TPH1 (ΔNH102-ΔCOOH402); made in house; host or cells: E. coli BL21(DE3)
Procedure: A fluorescence-based thermal stability assay (differential scanning fluorimetry, DSF) was used for testing the effects of HDIs on the thermal stability of TPH1.
For initial high throughput screening (HTS), compounds were prepared at a concentration of 10 mM (in some cases, 5 mM) in 100% DMSO. Initial HTS screening was performed on TPH1 with and without compounds using a LightCycler 480 Real-Time PCR System (Roche Applied Science). TPH1 was diluted to 0.075 mg/mL in 50 mM Tris pH 8.0, 200 mM NaCl, 0.5 mM TCEP, and 5% glycerol with 5x SYPRO Orange. Compounds were added to a final concentration of 50 μM. Controls with 0.5% DMSO were performed on each 384-well microplate. Unfolding curves were recorded from 20 to 95 °C at a scan rate of 2 °C/min and monitored at excitation = 465 nm and emission = 610 nm. Selected hits were validated further by serial dilution from 250 μM to 122 nM, keeping the DMSO concentration constant at 2%.
DSF data were analyzed using HTSDSF Explorer.[55] Melting temperature (Tm) was calculated from the maximum value of the first derivative of the unfolding curve. ΔTm (Tm with compound–averaged Tm in DMSO controls) was plotted for all validated curves and a threshold of 2 °C was set (typically, cutoff at ΔTm = 3-fold the SD of the Tm of the DMSO control).
Preliminary binding constants (KD) were calculated by fitting data to the equation [drawing 1] where ΔH0 is the enthalpy of the unfolding of the protein in the presence of ligand ([L]), and R is the gas constant.

human PAH = biological target: T2, human PAH (Homo sapiens, UniProt P00439); assay: PAH enzyme activity assay (HPLC, L-Tyr); assay type: biochemical; conditions: best-fit IC50 (± SE), nonlinear regression; N.A. = no activity; read-out: IC50 (μM) PAH
T2 construct: Full-length human TH isoform 1 (TH1), human PAH, human TPH2, and doubly truncated human TPH1; made in house; host or cells: E. coli TB1
T2 sequence (P00439 1-452): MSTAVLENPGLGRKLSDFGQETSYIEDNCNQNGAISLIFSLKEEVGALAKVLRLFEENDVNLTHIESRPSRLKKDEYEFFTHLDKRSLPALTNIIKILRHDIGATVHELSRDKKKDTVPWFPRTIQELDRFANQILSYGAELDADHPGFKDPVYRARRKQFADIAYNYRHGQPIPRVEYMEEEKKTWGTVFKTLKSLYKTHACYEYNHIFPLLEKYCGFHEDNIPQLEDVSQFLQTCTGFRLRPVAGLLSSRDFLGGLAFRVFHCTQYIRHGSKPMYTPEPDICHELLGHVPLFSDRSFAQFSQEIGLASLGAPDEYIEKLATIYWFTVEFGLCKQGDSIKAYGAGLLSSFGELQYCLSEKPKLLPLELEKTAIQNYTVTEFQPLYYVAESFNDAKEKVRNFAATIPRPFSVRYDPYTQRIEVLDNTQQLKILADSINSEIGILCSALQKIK

human TPH2 = biological target: T3, human TPH2 (Homo sapiens, UniProt Q8IWU9); assay: TPH2 enzyme activity assay (HPLC); assay type: biochemical; conditions: best-fit IC50 (± SE), nonlinear regression; N.A. = no activity
T3 construct: Full-length human TH isoform 1 (TH1), human PAH, human TPH2, and doubly truncated human TPH1; MBP (cleaved yes); made in house; host or cells: E. coli BL21(DE3)
T3 sequence (Q8IWU9 1-490): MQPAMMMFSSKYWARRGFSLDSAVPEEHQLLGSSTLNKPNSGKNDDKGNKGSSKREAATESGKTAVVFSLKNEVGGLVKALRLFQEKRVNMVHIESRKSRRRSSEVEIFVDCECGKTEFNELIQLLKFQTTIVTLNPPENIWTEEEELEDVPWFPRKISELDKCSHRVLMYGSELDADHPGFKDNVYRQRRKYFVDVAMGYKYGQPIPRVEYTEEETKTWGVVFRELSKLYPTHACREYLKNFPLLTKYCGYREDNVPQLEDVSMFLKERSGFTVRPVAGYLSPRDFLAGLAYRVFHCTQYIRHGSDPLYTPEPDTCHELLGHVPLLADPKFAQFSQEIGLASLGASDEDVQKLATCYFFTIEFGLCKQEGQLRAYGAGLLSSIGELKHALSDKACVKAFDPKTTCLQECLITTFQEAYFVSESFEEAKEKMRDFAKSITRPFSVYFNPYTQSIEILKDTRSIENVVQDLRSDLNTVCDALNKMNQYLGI
Procedure: (§1) TPH1 enzymatic activity assays were performed with the selected hits from the DSF screening in the presence and absence of 50 μM of each compound. The final concentration of DMSO was 0.5% (v/v), and control experiments used 0.5% DMSO in the absence of ligand. Assays were performed in a standard reaction mixture containing 40 mM Hepes pH 7.0, 200 mM NaCl, 0.1 mg/mL catalase, 0.5 mg/mL BSA, 10 μM ferrous ammonium sulfate, and 30 μM L-tryptophan (L-Trp). Compounds were incubated with TPH1 (0.02 mg/mL) in the reaction mixture for 10 min on ice.

[1] = biological target: T4, doubly truncated human TPH1 (ΔNH102-ΔCOOH402) (Homo sapiens, UniProt P17752); assay: TPH1 enzyme activity assay (HPLC, 5-OH-Trp); assay type: biochemical; conditions: for IC50: best-fit IC50 (± SE), nonlinear regression, N.A. = no activity
T4 construct: doubly truncated human TPH1 (ΔNH102-ΔCOOH402); made in house; host or cells: E. coli BL21(DE3)
Procedure: as §1

human TH isoform 1 (TH1) = biological target: T5, human TH isoform 1 (TH1) (Homo sapiens, UniProt P07101); assay: TH enzyme activity assay (HPLC, L-DOPA); assay type: biochemical; conditions: best-fit IC50 (± SE), nonlinear regression; N.A. = no activity
T5 construct: Full-length human TH isoform 1 (TH1); His6-ZZ fusion partner (one of the two preparations only) (cleaved yes); made in house; host or cells: E. coli BL21(DE3) pLysS (pET3a) or BL21 CodonPlus (pET-ZZ-1a)
Procedure: The activity of purified PAH, TH, TPH1, and TPH2 was measured using high-performance liquid chromatography (HPLC) as previously described.[50],[56],[57]
TH activities were performed in a standard reaction mixture containing 40 mM Hepes (pH 7.0), 0.1 mg/mL catalase, 10 μM ferrous ammonium sulfate, and 50 μM L-Tyr. Compounds were incubated with TH (0.01 mg/mL) in the reaction mixture for 10 min on ice. The enzymatic reaction was initiated by adding 200 μM BH4 and 2 mM DTT (final concentrations) and stopped by precipitation with 2% (v/v) acetic acid in ethanol after 5 min at 37 °C. The product, L-DOPA, was quantified by HPLC utilizing a fluorescence monitor set at 281 and 314 nm for excitation and emission, respectively.
GraphPad Prism (version 10; La Jolla, CA) was used for analyzing the enzyme inhibition data.

HDAC 6 = conditions: cited from earlier work
HDAC 8 = conditions: human recombinant HDAC, cited from earlier work
[2] = human recombinant HDAC, ref 1 (PMID: 26443078)

T1 sequence (P17752 102-402): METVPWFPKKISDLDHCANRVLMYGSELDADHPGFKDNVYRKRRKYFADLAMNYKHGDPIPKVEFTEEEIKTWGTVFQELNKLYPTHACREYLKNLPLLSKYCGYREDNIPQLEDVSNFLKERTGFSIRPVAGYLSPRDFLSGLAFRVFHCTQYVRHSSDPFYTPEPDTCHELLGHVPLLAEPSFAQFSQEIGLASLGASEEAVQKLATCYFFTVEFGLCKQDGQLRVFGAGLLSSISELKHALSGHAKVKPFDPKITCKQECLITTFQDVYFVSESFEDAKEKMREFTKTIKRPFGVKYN
T4 sequence (P17752 102-402, stated change not applied): as the sequence (P17752 102-402) above
T5 sequence (P07101 1-497 isoform P07101-3): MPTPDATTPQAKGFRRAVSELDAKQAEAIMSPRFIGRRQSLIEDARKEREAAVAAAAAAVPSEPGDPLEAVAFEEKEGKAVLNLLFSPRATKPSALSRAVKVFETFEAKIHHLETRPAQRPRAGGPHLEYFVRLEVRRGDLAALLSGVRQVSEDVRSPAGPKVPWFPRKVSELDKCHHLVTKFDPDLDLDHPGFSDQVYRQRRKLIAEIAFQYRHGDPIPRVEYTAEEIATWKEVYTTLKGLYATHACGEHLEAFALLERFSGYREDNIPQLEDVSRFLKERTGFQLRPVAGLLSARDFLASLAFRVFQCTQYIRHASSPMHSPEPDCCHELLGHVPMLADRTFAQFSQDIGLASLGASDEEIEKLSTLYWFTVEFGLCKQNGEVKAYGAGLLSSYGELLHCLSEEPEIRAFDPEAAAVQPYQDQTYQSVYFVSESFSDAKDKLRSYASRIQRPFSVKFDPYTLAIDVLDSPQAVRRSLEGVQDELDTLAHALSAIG

In the case of `O=C(NO)c1ccc(Cl)c(C(=O)Nc2ccc(Cl)cc2)c1` [EG22, 4-Chloro-3-(4-chlorophenylcarbamoyl)-N-hydroxybenzamide], the “HDAC 1 % inhibition @ 1 μM” value (HDAC 1; @ 1 μM, ref 4 (PMID: 34392190)) is listed as 20 ± 1%, the “Tm (°C) ± SD (°C), primary screen” value (TPH1; DSF, 50 μM compound) is listed as 59.4 ± 0.3 °C and the “ΔTm (°C) ± SD (°C), primary screen” value (TPH1; DSF, 50 μM compound, vs averaged Tm of 0.5% DMSO controls) is listed as 3.9 ± 0.2 °C. For the same compound, the Kd (TPH1) was 15.2 µM, the IC50 (human PAH) was 0.89 µM and 0.9 µM and the IC50 (human TPH2) was 10.7 µM. The IC50 [1] was 35.8 µM, the “inhibition of TPH1 activity at 50 μM” value ([1]; compound 50 μM, 0.5% DMSO) was “more than 50%” and the IC50 (human TH isoform 1 (TH1)) was 14.7 µM. The “HDAC 6 % inhibition @ 1 μM” value (HDAC 6; @ 1 μM, ref 4 (PMID: 34392190)) was 94 ± 4% and the IC50 (HDAC 8; ref 4 (PMID: 34392190)) was 0.18 ± 0.05 µM.
For `Cc1[nH]c2ccccc2c1CCNCc1ccc(/C=C/C(=O)NO)cc1` [panobinostat, reference compound], the IC50 (HDAC 1; [2]) is listed as […], the “Tm (°C) ± SD (°C), primary screen” value (TPH1; DSF, 50 μM compound) is listed as 56.0 ± 0.0 °C and the ΔTm at 50 µM (TPH1; DSF, 50 μM compound, vs averaged Tm of 0.5% DMSO controls, read-out: ΔTm (°C) ± SD (°C), primary screen) is listed as 0.4 °C. The Kd (TPH1) was 15.6 µM, the IC50 (human PAH) was 0.57 µM and 0.6 µM and the IC50 (human TPH2) was 43.6 µM. The IC50 [1] was 95.4 µM, the inhibition at 50 µM ([1]; compound 50 μM, 0.5% DMSO) was greater than 50% and the IC50 (human TH isoform 1 (TH1)) was 8.67 µM and 8.7 µM. The IC50 (HDAC 6; [2]) was […] and the IC50 (HDAC 8; ref 1 (PMID: 26443078)) was […].

Reference: publication PMC11587510, “Aromatic Amino Acid Hydroxylases as Off-Targets of Histone Deacetylase Inhibitors” (ACS Chemical Neuroscience, 2024)
